Laboratory results from publication PMC9237828, “Chemically Tuning Resveratrol for the Effective Killing of Gram-Positive Pathogens” (Journal of Natural Products, 2022).
In brackets after ≈: the same amount, converted by molar mass.

Experiments:
[1] = tested on: panel of aerobic and anaerobic Gram-positive bacteria; experiment: organism not typed; assay type: cell-based
B. cereus ATCC10987 = experiment: microbe, parasite or virus in culture; assay type: cell-based, Bacillus cereus; details: Bacillus cereus, ATCC10987, 20 h, read-out: Minimal Inhibition Concentration (MIC) B. cereus ATCC10987
B. cereus ATCC14579 = experiment: microbe, parasite or virus in culture; assay type: cell-based, Bacillus cereus; details: Bacillus cereus, ATCC14579, 20 h, read-out: Minimal Inhibition Concentration (MIC) B. cereus ATCC14579
S.aureus LMG8224 = experiment: microbe, parasite or virus in culture; assay type: cell-based, Staphylococcus aureus; details: Staphylococcus aureus, LMG8224, 20 h, read-out: Minimal Inhibition Concentration (MIC) S.aureus LMG8224
S.aureus LMG10147 = experiment: microbe, parasite or virus in culture; assay type: cell-based, Staphylococcus aureus; details: Staphylococcus aureus, LMG10147, 20 h, read-out: Minimal Inhibition Concentration (MIC) S.aureus LMG10147
S.aureus LMG15975 = experiment: microbe, parasite or virus in culture; assay type: cell-based, Staphylococcus aureus; details: Staphylococcus aureus, LMG15975, 20 h, read-out: Minimal Inhibition Concentration (MIC) S.aureus LMG15975
C. beijerinckii B504 = experiment: MIC test, anaerobes; assay type: cell-based; details: Clostridium beijerinckii, B504, 24 h; read-out: Minimal Inhibition Concentration (MIC) C. beijerinckii B504
Procedure: (§1) The resveratrol derivatives were serially diluted in cMHB (BD Difco) in 96-well microplates. Plates were then inoculated with the indicator bacteria at a final concentration of 5 × 10^5 CFU/mL and incubated at 37 °C for 20 h. In the case of the anaerobic bacteria (Clostridium and Clostridioides), the test was performed following the recommendation of CLSI for anaerobes[77] but using RCM medium instead of cMHB. The cultures were cultivated inside an anaerobic chamber at 37 °C for 24 h. All the tests were performed in triplicate.

C. ihumii AP5 = experiment: MIC test, anaerobes; assay type: cell-based; details: 24 h; read-out: Minimal Inhibition Concentration (MIC) C. ihumii AP5
Procedure: as §1

C. botulinum CECT551 = experiment: microbe, parasite or virus in culture; assay type: cell-based; details: Clostridium botulinum, CECT551, 24 h, read-out: Minimal Inhibition Concentration (MIC) C. botulinum CECT551
C. difficile CECT531 = experiment: microbe, parasite or virus in culture; assay type: cell-based, Clostridioides difficile; details: Clostridioides difficile, CECT531, 24 h, read-out: Minimal Inhibition Concentration (MIC) C. difficile CECT531
C. perfringens CECT376 = experiment: microbe, parasite or virus in culture; assay type: cell-based; details: Clostridium perfringens, CECT376, 24 h, read-out: Minimal Inhibition Concentration (MIC) C. perfringens CECT376
C. tetani CECT4629 = experiment: microbe, parasite or virus in culture; assay type: cell-based; details: Clostridium tetani, CECT4629, 24 h, read-out: Minimal Inhibition Concentration (MIC) C. tetani CECT4629
E. faecalis LMG08222 = experiment: microbe, parasite or virus in culture; assay type: cell-based, Enterococcus faecalis; details: Enterococcus faecalis, LMG08222, 20 h, read-out: Minimal Inhibition Concentration (MIC) E. faecalis LMG08222
E. faecalis V583 = experiment: microbe, parasite or virus in culture; assay type: cell-based, Enterococcus faecalis; details: Enterococcus faecalis, V583, 20 h, read-out: Minimal Inhibition Concentration (MIC) E. faecalis V583
E. faecium LMG16003 [2] = experiment: microbe, parasite or virus in culture; assay type: cell-based; details: Enterococcus faecium, LMG16003, 20 h, read-out: Minimal Inhibition Concentration (MIC) E. faecium LMG16003
E. faecium LMG16003 [3] = experiment: Combined action with antibiotics (MIC reduction, checkerboard FICI); assay type: cell-based; details: for FICI, antibiotic with 15 / FICI, antibiotic with 17: fractional inhibitory concentration index, EUCAST, * means relevant FICI values; for MIC of antibiotic in combination with RES: RES at 8 μM
S. aureus LMG8224 = experiment: as above; assay type: cell-based, Staphylococcus aureus; details: for MIC of antibiotic in combination with RES: RES at 4 μM; for FICI, antibiotic with 15 / FICI, antibiotic with 17: fractional inhibitory concentration index, EUCAST, * means relevant FICI values

Compound | antibacterial activity against the Gram-positive panel [1] | MIC (B. cereus ATCC10987) | MIC (S.aureus LMG8224) | MIC (C. difficile CECT531) | MIC (C. perfringens CECT376) | MIC (E. faecalis V583) | MIC of antibiotic in combination with 15 (E. faecium LMG16003 [3]; 15 at 4 μM) | MIC of antibiotic in combination with 15 (E. faecium LMG16003 [3]; 15 at 8 μM) | FICI, antibiotic with 15 (E. faecium LMG16003 [3]) | MIC of antibiotic in combination with 15 (S. aureus LMG8224; 15 at 2 μM) | MIC of antibiotic in combination with 15 (S. aureus LMG8224; 15 at 4 μM) | MIC of antibiotic in combination with 17 (S. aureus LMG8224; 17 at 4 μM) | MIC of antibiotic in combination with RES (S. aureus LMG8224) | MIC of antibiotic alone (Ab) (S. aureus LMG8224) | FICI, antibiotic with 15 (S. aureus LMG8224) | FICI, antibiotic with 17 (S. aureus LMG8224) | further results
CC(C)[Si](Oc1ccc(/C=C/c2cc(O[Si](C(C)C)(C(C)C)C(C)C)cc(O[Si](C(C)C)(C(C)C)C(C)C)c2)cc1)(C(C)C)C(C)C [compound 22] | not active or displayed very low antibacterial activity | – | – | – | – | – | – | – | – | – | – | – | – | – | – | – | –
CCCCCCCC(=O)OC[C@H]1O[C@@H](Oc2cc(/C=C/c3ccc(OC)cc3)cc(OC)c2)[C@H](O)[C@@H](O)[C@@H]1O [compound 28] | weak antibacterial activity | 128 µM (≈ 69.7 µg/mL) | 128 µM (≈ 69.7 µg/mL) | 85.3 ± 21.3 µM (≈ 46.5 µg/mL) | 128 µM (≈ 69.7 µg/mL) | – | – | – | – | – | – | – | – | – | – | – | MIC (B. cereus ATCC14579): 128 µM (≈ 69.7 µg/mL); MIC (S.aureus LMG10147): 128 µM (≈ 69.7 µg/mL); MIC (S.aureus LMG15975): 128 µM (≈ 69.7 µg/mL); MIC (C. beijerinckii B504): 32 µM (≈ 17.4 µg/mL); MIC (C. ihumii AP5): 64 µM (≈ 34.9 µg/mL); MIC (C. botulinum CECT551): 26.6 ± 5.3 µM (≈ 14.5 µg/mL); MIC (C. tetani CECT4629): 16 µM (≈ 8.71 µg/mL)
COc1cc(O)cc(/C=C/c2ccc(O[C@H]3O[C@@H](C(=O)O)[C@H](O)[C@@H](O)[C@@H]3O)cc2)c1 [compound 29] | did not show antibiotic activity | – | – | – | – | – | – | – | – | – | – | – | – | – | – | – | –
CC(C)(C)[Si](C)(C)Oc1ccc(/C=C/c2cc(OS(=O)(=O)O)cc(OS(=O)(=O)O)c2)cc1 [compound 34, 3,5-Disulfate-4′-tert-butyldimethylsilyl resveratrol] | – | – | – | – | 128 µM (≈ 64.3 µg/mL) | – | – | – | – | – | – | – | – | – | – | – | MIC (C. beijerinckii B504): 32 µM (≈ 16.1 µg/mL); MIC (C. ihumii AP5): 128 µM (≈ 64.3 µg/mL); MIC (C. botulinum CECT551): 53.3 ± 10.6 µM (≈ 26.8 µg/mL); MIC (C. tetani CECT4629): 5.3 ± 1.3 µM (≈ 2.66 µg/mL)
CC(C)[Si](Oc1ccc(/C=C/c2cc(O[Si](C(C)C)(C(C)C)C(C)C)cc(OS(=O)(=O)O)c2)cc1)(C(C)C)C(C)C [compound 36, 3-Sulfate-4′,5-diisopropylsilyl resveratrol] | – | – | – | – | – | 128 µM (≈ 79.5 µg/mL) | – | – | – | – | – | – | – | – | – | – | MIC (E. faecalis LMG08222): 128 µM (≈ 79.5 µg/mL)
CNC(C)C1CCC(N)C(OC2C(N)CC(N)C(OC3OCC(C)(O)C(NC)C3O)C2O)O1 (stereo not shown) [gentamicin] | – | 4 µM (≈ 1.91 µg/mL) | 1 ± 0.35 µM (≈ 0.478 µg/mL) | > 32 µM | > 32 µM | > 32 µM | 13.3 ± 1.8 µM | 5.3 ± 0.9 µM | 0.41 | 0.5 ± 0 µM | 0.1 ± 0 µM | 0.1 ± 0 µM | 1 ± 0 µM | 1 ± 0 µM | 0.37 | 0.58 | MIC (E. faecium LMG16003 [2]): 12.6 ± 1.61 µM (≈ 6 µg/mL); MIC of antibiotic in combination with 17 (E. faecium LMG16003 [3]; 17 at 2 μM): 13.3 ± 1.8 µM; MIC of antibiotic in combination with 17 (E. faecium LMG16003 [3]; 17 at 4 μM): 6.6 ± 0.9 µM; FICI, antibiotic with 17 (E. faecium LMG16003 [3]): 0.66; MIC of antibiotic in combination with 17 (S. aureus LMG8224; 17 at 2 μM): 0.3 ± 0 µM
CN[C@H](CC(C)C)C(=O)N[C@H]1C(=O)N[C@@H](CC(N)=O)C(=O)N[C@H]2C(=O)N[C@H]3C(=O)N[C@H](C(=O)N[C@H](C(=O)O)c4cc(O)cc(O)c4-c4cc3ccc4O)[C@H](O)c3ccc(c(Cl)c3)Oc3cc2cc(c3O[C@@H]2O[C@H](CO)[C@@H](O)[C@H](O)[C@H]2O[C@H]2C[C@](C)(N)[C@H](O)[C@H](C)O2)Oc2ccc(cc2Cl)[C@H]1O [vancomycin, reference compound] | – | 6 ± 2 µM (≈ 8.7 µg/mL) | 10.7 ± 2.7 µM (≈ 15.5 µg/mL) | 1.25 ± 0.75 µM (≈ 1.81 µg/mL) | 0.18 ± 0.06 µM (≈ 0.261 µg/mL) | 9.8 ± 2.7 µM (≈ 14.2 µg/mL) | – | – | – | – | – | – | – | – | – | – | MIC (E. faecium LMG16003 [2]): > 32 µM
Resveratrol-3-glucuronate [compound 8] | did not show antibiotic activity | – | – | – | – | – | – | – | – | – | – | – | – | – | – | – | –
bacitracin | – | – | – | – | – | – | 16 ± 0 µM | 0.3 ± 0.2 µM | 0.27* | 26.6 ± 3.7 µM | 4 ± 0 µM | 6.6 ± 0.9 µM | >32 µM | >32 µM | 0.31* | 0.41* | MIC of antibiotic in combination with 17 (E. faecium LMG16003 [3]; 17 at 2 μM): 32 ± 0 µM; MIC of antibiotic in combination with 17 (E. faecium LMG16003 [3]; 17 at 4 μM): 16 ± 0 µM; MIC of antibiotic in combination with RES (E. faecium LMG16003 [3]): >32 µM; MIC of antibiotic alone (Ab) (E. faecium LMG16003 [3]): >32 µM; FICI, antibiotic with 17 (E. faecium LMG16003 [3]): 0.75*
polymyxin B | – | – | – | – | – | – | 21.3 ± 3.7 µM | 1.8 ± 0.2 µM | 0.27* | 8 ± 0 µM | 1 ± 0 µM | 6.6 ± 0.9 µM | >32 µM | >32 µM | 0.25* | 0.45* | MIC of antibiotic in combination with RES (E. faecium LMG16003 [3]): >32 µM; MIC of antibiotic alone (Ab) (E. faecium LMG16003 [3]): >32 µM; MIC of antibiotic in combination with 17 (S. aureus LMG8224; 17 at 2 μM): 13.3 ± 1.8 µM
